The values below come from patent US20090214434A1, “METHOD OF DETECTING AND TREATING ALLOGENIC CELLS RESPONSIBLE FOR ENDOMETRIOSIS” (priority 2004, published 2009).

SMILES strings stand for the structures.

Data set [1] deals with normal self-cells of the uterus. The experiment in a line: Transvaginal ultrasound of uterine lining / normal self-cells of the uterus, and menstrual period cycle, in the same patient. Type of data set: in vivo, human. The note with it: patient taking aspirin with TFI. From the text:
In using transvaginal ultra sound, it was possible to view and compare the thickness of the uterine lining, and no abnormal change was observed despite all the activity in the peritoneal cavity.
It should be noted that use of counter chemotherapy produced no change in those similar normal self-cells of the uterus as detectable by ultrasound. All of these ultrasounds were taken at 3 to four days after the patient's periods, except the last one as they had their period cycle extended by taking aspirin.

The conditions of data set [2]: Ghent et al (1993); U.S. Pat. No. 4,555,347; cited from earlier work.
For another data set, the system named is endometriomas. The experiment in a line: Human clinical trial: resolution or growth of endometriomas followed by monthly ultrasound under TFI chemotherapy and antioxidant counter therapy. Type of data set: in vivo. An excerpt:
When TFI chemotherapy is stopped to allow the thyroid a rest, we see a general improvement in iron scavenging at lower dose rates afterwards (which hints at a multi-step process that can be slowly poisoned, most probably by I^− to tri-iodide) and usually a recovery to visibility in those in-completely resolved endometriomas during this treatment hiatus. We timed this 3rd party evidence trial to happen as we approached a pre-planned thyroid rest period, taking monthly ultrasounds before to position each active endometrioma as closely as possible, and include three such rest periods, plus two thyroid examinations.
The simplest test was to gently down-regulate the CMI in a patient while that patient was still on TFI chemotherapy, and to observe what happens next. The patient then took 800 international units of vitamin E a day (as a tocopherol). […] A second antioxidant, dietary zinc (10 mg/day), was added to the regimen. Use of both antioxidants allowed us to say that this was not a special case for either antioxidant, though the cumulative effects were very obvious. Vitamin E was stopped two weeks before zinc, to provide a period of zinc only. TFI-induced resolution was still blocked.
The patient then went into their thyroid rest period, and as usual a few recently but incompletely resolved endometriomas developed, but so did two that had been thought resolved from two years ago for a total of five.

Consider `CC(=O)Oc1ccccc1C(=O)O` [aspirin, acetylsalicylic acid], for which the period cycle result in data set [1] is given as “extended”.

For `II` [TFI, thermodynamically free iodine], the “toxicity compared with other forms of iodine” value in data set [2] was “least toxicity of all forms of iodine”. In addition, in the data set with endometriomas (clinical tests (FIG. 2), patients, administration of iodine), the “clean-up of endometrial cell debris, aberrant organ attachments, endometriomas and stratum functional cell masses” value is reported as “effective”. Moreover, the “time for resolution of endometriomas (Stage I to Stage IV process)” value in the data set with endometriomas (otherwise takes about 15 years without TFI) is “about one or two”. The pain result in the data set with endometriomas (use of TFI in the endometriosis patient) was “relief from pain”.

With `[Zn]` [zinc], the “TFI-induced resolution of endometriomas” value in the data set on endometriomas (period of zinc only (vitamin E stopped two weeks before zinc), dietary zinc 10 mg/day, on TFI) was “still blocked”.

For `Cc1c(C)c2c(c(C)c1O)CC[C@@](C)(CCC[C@H](C)CCC[C@H](C)CCCC(C)C)O2` [vitamin E, alpha tocopherol], the “change in endometriomas (number and size)” value in the data set on endometriomas (patient still on TFI chemotherapy, 800 international units of vitamin E a day) was “Minor change was observed, with new endometriomas developing and old ones rapidly increasing in size”.
